In patent publication US9458172B2, “Pyridinyl and pyrimidinyl sulfoxide and sulfone derivatives” (priority 2012, dated 2016):
pIC50: −log10 of the molar value. Read-outs that look alike come from different tables or passages of the source.

How the values were obtained:
NAMPT = NAMPT (Homo sapiens (Human), UniProt P43490); experiment: Biochemical Inhibition Assay (NAMPT enzymatic reaction, NMN quantified by mass spectrometry); conditions: 33 nM recombinant His-tagged NAMPT, 1 μM NAM, 30 min at rt
Method in brief: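 His-tagged human NAMPT from E. coli preincubated 15 min at rt with compound in 50 mM Hepes pH 7.5, 50 mM NaCl, 5 mM MgCl2, 1 mM THP, then reacted 30 min at rt with 1 μM NAM, […] PRPP, 2.5 mM ATP. NMN quantified by RapidFire mass spectrometry, normalized to L-Cystathionine, background subtracted.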

A2780 cells = experiment: In-Vitro Cell Proliferation Assay (SRB)
[1] = Homo sapiens, A2780, 72 h, read-out: Cell Proliferation (IC50)
[2] = Homo sapiens, A2780, 72 h, read-out: Cell Proliferation (IC50), A2780 cells, 72 h, sulforhodamine B
[3] = read-out: Cell Proliferation (IC50), A2780 cells, 72 h, sulforhodamine B

NAMPT, sequence (P43490 whole entry): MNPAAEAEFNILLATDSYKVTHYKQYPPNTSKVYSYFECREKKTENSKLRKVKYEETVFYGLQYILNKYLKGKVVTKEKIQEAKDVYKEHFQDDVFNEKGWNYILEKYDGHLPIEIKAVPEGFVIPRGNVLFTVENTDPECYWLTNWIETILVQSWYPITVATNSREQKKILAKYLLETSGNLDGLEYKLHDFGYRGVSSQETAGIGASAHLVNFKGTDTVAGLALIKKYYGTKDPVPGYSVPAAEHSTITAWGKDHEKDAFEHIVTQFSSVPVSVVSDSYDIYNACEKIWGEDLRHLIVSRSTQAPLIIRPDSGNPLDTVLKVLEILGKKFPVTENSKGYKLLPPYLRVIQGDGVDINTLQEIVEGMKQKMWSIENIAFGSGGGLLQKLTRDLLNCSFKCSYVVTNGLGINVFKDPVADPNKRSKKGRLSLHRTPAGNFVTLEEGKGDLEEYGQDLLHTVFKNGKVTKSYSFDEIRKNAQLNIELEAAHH

| Structure (SMILES) | pIC50 (NAMPT) | pIC50 (A2780 cells; [1]) | pIC50 (A2780 cells; [2]) | pIC50 (A2780 cells; [3]) |
| --- | --- | --- | --- | --- |
| CCS(=O)(=O)c1cccc(S(=O)(=O)c2ccc(CNC(=O)N3Cc4ccncc4C3)nc2)c1 [Example 114, N-[[5-(3-ethylsulfonylphenyl)sulfonyl-2-pyridyl]methyl]-1,3-dihydropyrrolo(3,4-c]pyridine-2-carboxamide] | 8.67 | 6.87 | – | – |
| O=C(NCc1ccc([S+]([O-])c2cc(F)cc(F)c2)cn1)N1Cc2ccncc2C1 (centres unmarked) [Example 116, N-[[5-(3,5-difluorophenyl)sulfinyl-2-pyridyl]methyl]-1,3-dihydropyrrolo[3,4-c]pyridine-2-carboxamide] | 7.81 | – | 8.05 | – |
| O=C(NCc1ccc([S+]([O-])C2CCN(CC(F)(F)F)CC2)cn1)c1cc2ccncc2o1 (centres unmarked) [Example 118, N-[[5-[[1-(2,2,2-trifluoroethyl)-4-piperidyl]sulfinyl]-2-pyridyl]rnethyl]furo[2,3-c]pyridine-2-carboxamide] | 7.12 | – | – | 7.91 |
| O=C(NCc1ccc(S(=O)(=O)C2CCN(C3CCOCC3)CC2)cn1)N1Cc2ccncc2C1 [Example 119, N-[[5-[(1-tetrahydropyran-4 yl-4-piperidyl)sulfonyl]-2-pyridyl]methyl]-1,3-dihydropyrrolo[3,4-c]pyridine-2-carboxamide] | 7.43 | – | 7.84 | – |
| O=C(NCc1ccc(S(=O)(=O)c2cccc(N3CCOCC3)c2)cn1)c1cc2ccncc2o1 [Example 123, N-[[5-(3-morpholinophenyl)sulfonyl-2-pyridyl]methyl]furo[2,3-c]pyridine-2-carboxamide] | 7.66 | 7.72 | – | – |
| O=C(NCc1ccc(S(=O)(=O)C2CCN(C3CCOC3)CC2)cn1)c1cc2ccncc2o1 (centres unmarked) [Example 128, N-[[5-[(1-tetrahydrofuran-3-yl-4-piperidyl)sulfonyl]-2-pyridyl]methyl]furo[2,3-c]pyridine-2-carboxamide] | 7.14 | 7.60 | – | – |
| O=C(NCc1ccc(S(=O)(=O)C2CCN(C3CCOC3)CC2)cn1)N1Cc2ccncc2C1 (centres unmarked) [Example 129, N-[[5-[(1-tetrahydrofuran-3-yl-4-piperidyl)sulfonyl]-2-pyridyl]methyl]-1,3-dihydropyrrolo[3,4-c]pyridine-2-carboxamide] | 7.49 | 7.44 | – | – |
| O=C(NCc1ccc(S(=O)(=O)c2cnc(N3CCCC3)s2)cn1)c1cc2ccncc2o1 [Example 138, N-[[5-(2-pyrrolidin-1-ylthiazol-5-yl)sulfonyl-2-pyridyl]methyl]furo[2,3-c]pyridine-2-carboxamide] | 8.02 | 8.55 | – | – |
| COc1cc(OC)cc(S(=O)(=O)c2ccc(CNC(=O)c3cnc4[nH]ncc4c3)nc2)c1 [Example 139, N-[[5-(3,5-dimethoxyphenyl)sulfonyl-2-pyridyl]methyl]-1H-pyrazolo[3,4-b]pyridine-5-carboxamide] | 7.83 | 8.51 | – | – |
| O=C(NCc1ccc(S(=O)(=O)N2CCN(C3COC3)CC2)cn1)c1cc2ccncc2o1 [Example 141, N-[[5-[4-(oxetan-3-yl)piperazin-1-yl]sulfonyl-2-pyridyl]methyl]furo[2,3-c]pyridine-2-carboxamide] | 6.68 | 7.14 | – | – |
| O=C(NCc1ccc(S(=O)(=O)N2CCC(N3CCCC3)CC2)cn1)N1Cc2ccncc2C1 [Example 148, N-[[5-[(4-pyrrolidin-1-yl-1-piperidyl)sulfonyl]-2-pyridyl]methyl]-1,3-dihydropyrrolo[3,4-c]pyridine-2-carboxamide] | 7.12 | 7.07 | – | – |
| O=C(NCc1ccc(S(=O)(=O)N2CCC(N3CCCC3)CC2)cn1)c1cnc2[nH]ncc2c1 [Example 149, N-[[5-[(4-pyrrolidin-1-yl-1-piperidyl)sulfonyl]-2-pyridyl]methyl]-1H-pyrazolo[3,4-b]pyridine-5-carboxamide] | 6.21 | – | 5.73 | – |

More lines, main results first:

| pIC50 (NAMPT) | pIC50 (A2780 cells; [1]) | pIC50 (A2780 cells; [2]) | Structure (SMILES) | pIC50 (A2780 cells; [3]) |
| --- | --- | --- | --- | --- |
| 9.00 | 8.97 | – | COc1cc(OC)cc(S(=O)(=O)c2ccc(CNC(=O)c3cc4ccncc4o3)nc2)c1 [Example 112, N-[[5-(3,5-dimethoxyphenyl)sulfonyl-2-pyridyl]methyl]furo[2,3-c]pyridine-2-carboxamide] | – |
| 7.93 | 8.12 | – | O=C(NCc1ccc([S+]([O-])c2cccc(C(F)(F)F)c2)cn1)N1Cc2ccncc2C1 (centres unmarked) [Example 120, N-[[5-[3-(trifluoromethyl)phenyl]sulfinyl-2-pyridyl]methyl]-1,3-dihydropyrrolo[3,4-c]pyridine-2-carboxamide] | – |
| 7.17 | 5.70 | – | COCC(=O)N1CCC(S(=O)(=O)c2ccc(CNC(=O)N3Cc4ccncc4C3)nc2)CC1 [Example 121, N-[[5-[[1-(2-methoxyacetyl)-4-piperidyl]sulfonyl]-2-pyridyl]methyl]-1,3-dihydropyrrolo[3,4-c]pyridine-2-carboxamide] | – |
| 6.99 | 7.33 | – | COCC(=O)N1CCC(S(=O)(=O)c2ccc(CNC(=O)c3cc4ccncc4o3)nc2)CC1 [Example 122, N-[[5-[[1-(2-methoxyacetyl)-4-piperidyl]sulfonyl]-2-pyridyl]methyl]furo[2,3-c]pyridine-2-carboxamide] | – |
| 7.89 | 7.72 | – | CS(=O)(=O)c1cccc(S(=O)(=O)c2ccc(CNC(=O)c3cc4ccncc4o3)nc2)c1 [Example 124, N-[[5-(3-methylsulfonylphenyl)sulfonyl-2-pyridyl]methyl]furo[2,3-c]pyridine-2-carboxamide] | – |
| 7.85 | 7.99 | – | O=C(NCc1ccc(S(=O)(=O)c2ccc(N3CCOCC3)nc2)cn1)N1Cc2ccncc2C1 [Example 125, N-[[5-[(6-morpholino-3-pyridyl)sulfonyl]-2-pyridyl]methyl]-1,3-dihydropyrrolo[3,4-c]pyridine-2-carboxamide] | – |
| 7.16 | 7.25 | – | O=C(NCc1ccc(S(=O)(=O)N2CCN(C3CCOCC3)CC2)cn1)N1Cc2ccncc2C1 [Example 126, N-[[5-(4-tetrahydropyran-4-ylpiperazin-1-yl)sulfonyl-2-pyridyl]methyl]-1,3-dihydropyrrolo[3,4-c]pyridine-2-carboxamide] | – |
| 7.31 | 7.50 | – | O=C(NCc1ccc(S(=O)(=O)N2CCN(C3CCOCC3)CC2)cn1)c1cc2ccncc2o1 [Example 127, N-[[5-(4-tetrahydropyran-4-ylpiperazin-1-yl)sulfonyl-2-pyridyl]methyl]furo[2,3-c]pyridine-2-carboxamide] | – |
| 7.40 | 7.29 | – | CCCC(=O)N1CCC(S(=O)(=O)c2ccc(CNC(=O)c3cc4ccncc4o3)nc2)CC1 [Example 130, N-[[5-[(1-butanoyl-4-piperidyl)sulfonyl]-2-pyridyl]methyl]furo[2,3-c]pyridine-2-carboxamide] | – |
| 8.28 | – | 7.61 | O=C(NCc1ccc(S(=O)(=O)C2CCN(CC(F)(F)F)CC2)cn1)c1cc2ccncc2o1 [Example 131, N-[[5-[[1-(2,2,2-trifluoroethyl)-4-piperidyl]sulfonyl]-2-pyridyl]methyl]furo[2,3-c]pyridine-2-carboxamide] | – |
| 7.77 | 6.35 | – | CS(=O)(=O)c1cccc(S(=O)(=O)c2ccc(CNC(=O)c3cnc4[nH]ncc4c3)nc2)c1 [Example 134, N-[[5-(3-methylsulfonylphenyl)sulfonyl-2-pyridyl]methyl]-1H-pyrazolo[3,4-b]pyridine-5-carboxamide] | – |
| 7.74 | – | – | CN1CCN(c2ccc(S(=O)(=O)c3ccc(CNC(=O)c4cc5ccncc5o4)nc3)cn2)CC1 [Example 135, N-[[5-[[6-(4-methylpiperazin-1-yl)-3-pyridyl]sulfonyl]-2-pyridyl]methyl]furo[2,3-c]pyridine-2-carboxamide] | 7.46 |
| 7.25 | 7.09 | – | CS(=O)(=O)c1cccc(S(=O)(=O)c2ccc(CNC(=O)c3ccc4nccn4c3)nc2)c1 [Example 137, N-[[5-(3-methylsulfonylphenyl)sulfonyl-2-pyridyl]methyl]imidazo[1,2-a]pyridine-6-carboxamide] | – |
| 6.66 | 6.59 | – | O=C(NCc1ccc(S(=O)(=O)N2CCN(C3COC3)CC2)cn1)N1Cc2ccncc2C1 [Example 142, N-[[5-[4-(oxetan-3-yl)piperazin-1-yl]sulfonyl-2-pyridyl]methyl]-1,3-dihydropyrrolo[3,4-c]pyridine-2-carboxamide] | – |
| 6.95 | 7.21 | – | O=C(NCc1ccc(S(=O)(=O)C2CCN(CC(F)(F)F)CC2)cn1)N1Cc2ccncc2C1 [Example 143, N-[[5-[[1-(2,2,2-trifluoroethyl)-4-piperidyl]sulfonyl]-2-pyridyl)methyl]-1,3-dihydropyrrolo[3,4-c]pyridine-2-carboxamide] | – |
| 8.00 | 8.54 | – | CCN(C)c1ncc(S(=O)(=O)c2ccc(CNC(=O)c3ccc4nccn4c3)nc2)s1 [Example 145, N-[[5-[2-[ethyl(methyl)amino]thiazol-5-yl]sulfonyl-2-pyridyl]methyl]imidazo[1,2-a]pyridine-6-carboxamide] | – |
| 8.17 | 8.22 | – | CCN(C)c1ncc(S(=O)(=O)c2ccc(CNC(=O)N3Cc4ccncc4C3)nc2)s1 [Example 147, N-[[5-[2-[ethyl(methyl)amino]thiazol-5-yl]sulfonyl-2-pyridyl]methyl]-1,3-dihydropyrrolo[3,4-c]pyridine-2-carboxamide] | – |
| 7.00 | 6.17 | – | Nc1ccc(S(=O)(=O)c2ccc(CNC(=O)N3Cc4ccncc4C3)nc2)cn1 [Example 150, N-[[5-[(6-amino-3-pyridyl)sulfonyl]-2-pyridyl]methyl]-1,3-dihydropyrrolo[3,4-c]pyridine-2-carboxamide] | – |
| 7.26 | 7.26 | – | N#Cc1cccc(S(=O)(=O)c2ccc(CNC(=O)c3cc4ccncc4o3)nc2)c1 [Example 151, N-[[5-(3-cyanophenyl)sulfonyl-2-pyridyl]methyl]furo[2,3-c]pyridine-2-carboxamide] | – |
